Measurements as given in article PMC9229919, “4-Aminoquinoline-Based Adamantanes as Potential Anticholinesterase Agents in Symptomatic Treatment of Alzheimer’s Disease” (Pharmaceutics, 2022).
Read-outs that look alike come from different tables or passages of the source.

Legend:
[1] = Ferric reducing antioxidant power (FRAP) assay; conditions: mean ± standard error of three experiments;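 note: expressed as µM Fe2+ equivalents from an FeSO4·7H2O standard curve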
Description: . All the chemicals were purchased from Sigma-Aldrich (St. Louis, MO, USA), except for tripyridyltriazine (TPTZ) (Fluka, Buchs, Switzerland) and FeCl3 (Kemika, Zagreb, Croatia). The FRAP assay was assessed according to Benzie and Strain [53] with slight procedure adjustments for 96-well microplates. The method is based on the reduction of the ferric-tripyridyltriazine (Fe^3+-TPTZ) complex to ferrous tripyridyltriazine (Fe^2+-TPTZ) by the action of electron-donating compounds at a low pH. Briefly, the FRAP reagent was prepared by mixing acetate buffer (300 mM, pH 3.6), a solution of 10 mM TPTZ in 40 mM HCl, and 20 mM FeCl3 at 10:1:1 (v/v/v). Then, 240 μL of FRAP reagent and 10 μL of sample solution were added to a 96-well plate and incubated at 37 °C for 60 min. The absorbance was measured at 593 nm using a microplate reader (Infinite M200PRO, Tecan Austria GmbH, Salzburg, Austria) against a blank. The reducing capacity was determined for 10 and 100 µM compound concentrations. […]. All measurements were performed in three independent experiments. FRAP values, denominating the reduction of ferric-tripyridyltriazine (Fe^3+-TPTZ) to ferrous tripyridyltriazine (Fe^2+-TPTZ) by 4-aminoquinolines were calculated based on a standard curve obtained using […].

purified human BChE = molecular target: T1, purified human BChE (Homo sapiens, UniProt P06276); assay: biochemical; format: biochemical
T1 construct: possibly also a gift of Dr Florian Nachon (the sentence is ambiguous)
Description: (§1) Acetylthiocholine (ATCh) and 5,5′-dithiobis(2-nitrobenzoic acid) (DTNB) were purchased from Sigma-Aldrich, St. Louis, MO, USA. ATCh was dissolved in water and DTNB in 0.1 M sodium phosphate buffer (pH 7.4). The 4-aminoquinilines were dissolved in DMSO and all further dilutions were made in water.
(§2) The sources of AChE and BChE were purified human BChE and recombinant human AChE that was kindly provided by Dr Florian Nachon (Département de Toxicologie, Armed Forces Biomedical Research Institute, Brétigny-sur-Orge, France). […] The enzymes were diluted in sodium phosphate buffer 0.1 M (pH 7.4) containing 0.1% BSA.
(§3) Enzyme activities were measured spectrophotometrically using a slightly modified Ellman method, as described earlier. […] At least three inhibitor concentrations for each substrate concentration were used in at least three experiments. The apparent inhibition constant (Ki,app) was calculated using the Hunter–Downs Equation and linear regression analysis:(1) Ki,app=vi·i/v0−vi=Ki+Ki/KS·s where the y-intercept determines the enzyme-inhibitor dissociation constant (Ki), while the x-intercept determines the enzyme-substrate dissociation constant, KS.
(§4) The Hunter–Downs Equation was used under the assumption that the substrate, due to relatively low concentrations used in experiments, would bind only to the catalytic site of the enzymes, while the inhibitors would bind to both CAS and/or PAs. This allowed the type of inhibition to be determined from Ki,app vs. substrate concentration ([S]) dependency on Hunter–Downs plot.
(§5) The final content of DMSO in the measurements was up to 0.2%. […] The measurements were performed at 25 °C on a Tecan Infinite M200Pro plate reader (Tecan Austria GmbH, Salzburg, Austria).

recombinant human AChE = molecular target: T2, recombinant human AChE (Homo sapiens, UniProt P22303); assay: biochemical; format: biochemical; conditions: for IS: IS = Ki(BChE)/Ki(AChE), IS > 1 selective to AChE
T2 construct: gift of Dr Florian Nachon (Armed Forces Biomedical Research Institute, Brétigny-sur-Orge, France)
Description: as §1, §2, §3, §4, §5

[2] = Reverse-phase thin-layer chromatographic lipophilicity (RF, RM0); format: physicochemical; conditions: for RM0: intercept of RM = RM0 + bC; for b: slope of RM = RM0 + bC; for RF, Methanol/Water/Hydrochloric acid (conc.), mobile phase I / RF, Dioxane/Water/Hydrochloric acid (conc.), mobile phase II / RF, Methanol/Water/Hydrochloric acid (conc.), mobile phase II / RF, Acetone/Water/Hydrochloric acid (conc.), mobile phase III / RF, Dioxane/Water/Hydrochloric acid (conc.), mobile phase III / RF, Methanol/Water/Hydrochloric acid (conc.), mobile phase III / RF, Dioxane/Water/Hydrochloric acid (conc.), mobile phase IV / RF, Acetone/Water/Hydrochloric acid (conc.), mobile phase IV / RF, Methanol/Water/Hydrochloric acid (conc.), mobile phase IV / RF, Acetone/Water/Hydrochloric acid (conc.), mobile phase IX / RF, Methanol/Water/Hydrochloric acid (conc.), mobile phase IX / RF, Dioxane/Water/Hydrochloric acid (conc.), mobile phase V / RF, Acetone/Water/Hydrochloric acid (conc.), mobile phase V / RF, Methanol/Water/Hydrochloric acid (conc.), mobile phase V / RF, Dioxane/Water/Hydrochloric acid (conc.), mobile phase VI / RF, Acetone/Water/Hydrochloric acid (conc.), mobile phase VI / RF, Methanol/Water/Hydrochloric acid (conc.), mobile phase VI / RF, Acetone/Water/Hydrochloric acid (conc.), mobile phase VII / RF, Methanol/Water/Hydrochloric acid (conc.), mobile phase VII / RF, Acetone/Water/Hydrochloric acid (conc.), mobile phase VIII / RF, Methanol/Water/Hydrochloric acid (conc.), mobile phase VIII: RP-18 silica; for RF, Methanol/Water/Hydrochloric acid (conc.), mobile phase I: I = 90%MeOH/5%H2O/5%HCl; for RF, Dioxane/Water/Hydrochloric acid (conc.), mobile phase II: II = 80%Dioxane/15%H2O/5%HCl; for RF, Methanol/Water/Hydrochloric acid (conc.), mobile phase II: II = 85%MeOH/10%H2O/5%HCl; for RF, Acetone/Water/Hydrochloric acid (conc.), mobile phase III: III = 70%AC/25%H2O/5%HCl; for RF, Dioxane/Water/Hydrochloric acid (conc.), mobile phase III: III = 70%Dioxane/25%H2O/5%HCl; for RF, Methanol/Water/Hydrochloric acid (conc.), mobile phase III: III = 80%MeOH/15%H2O/5%HCl; for RF, Dioxane/Water/Hydrochloric acid (conc.), mobile phase IV: IV = 60%Dioxane/35%H2O/5%HCl; for RF, Acetone/Water/Hydrochloric acid (conc.), mobile phase IV: IV = 65%AC/30%H2O/5%HCl; for RF, Methanol/Water/Hydrochloric acid (conc.), mobile phase IV: IV = 75%MeOH/20%H2O/5%HCl; for RF, Acetone/Water/Hydrochloric acid (conc.), mobile phase IX: IX = 40%AC/55%H2O/5%HCl; for RF, Methanol/Water/Hydrochloric acid (conc.), mobile phase IX: IX = 50%MeOH/45%H2O/5%HCl; for RF, Dioxane/Water/Hydrochloric acid (conc.), mobile phase V: V = 50%Dioxane/45%H2O/5%HCl; for RF, Acetone/Water/Hydrochloric acid (conc.), mobile phase V: V = 60%AC/35%H2O/5%HCl; for RF, Methanol/Water/Hydrochloric acid (conc.), mobile phase V: V = 70%MeOH/25%H2O/5%HCl; for RF, Dioxane/Water/Hydrochloric acid (conc.), mobile phase VI: VI = 40%Dioxane/55%H2O/5%HCl; for RF, Acetone/Water/Hydrochloric acid (conc.), mobile phase VI: VI = 55%AC/40%H2O/5%HCl; for RF, Methanol/Water/Hydrochloric acid (conc.), mobile phase VI: VI = 65%MeOH/30%H2O/5%HCl; for RF, Acetone/Water/Hydrochloric acid (conc.), mobile phase VII: VII = 50%AC/45%H2O/5%HCl; for RF, Methanol/Water/Hydrochloric acid (conc.), mobile phase VII: VII = 60%MeOH/35%H2O/5%HCl; for RF, Acetone/Water/Hydrochloric acid (conc.), mobile phase VIII: VIII = 45%AC/50%H2O/5%HCl; for RF, Methanol/Water/Hydrochloric acid (conc.), mobile phase VIII: VIII = 55%MeOH/40%H2O/5%HCl
Description: Chromatographic determination of lipophilicity
Merck, Darmstadt, Germany). The mobile phase contained organic modifier (methanol, acetone or dioxane), water and hydrochloric acid.
Methanol was varied in the range […]
with an increment of 10%. […]
before chromatogram development. The solvent developing distance was 4.5 cm. Detection of […]
All experiments were performed at ambient temperature (22±2 °C). Retention parameters were calculated as previously described. […]

[3] = logarithm of Ki in µM, BChE, dependent variable of the QSAR model, read-out: Y Measured 2 log(ki)Bche, log (Ki/µM BChE) (converted)
[4] = ± standard error, 25 °C, ATCh substrate, read-out: Ki BChE
[5] = log (Ki/µM AChE), read-out: Y Measured 1 log(ki)Ache (converted)
[6] = ± standard error, 25 °C, ATCh substrate, read-out: Ki AChE
[7] = Acetone/Water/Hydrochloric acid (conc.)
[8] = Dioxane/Water/Hydrochloric acid (conc.)
[9] = Methanol/Water/Hydrochloric acid (conc.)

T2 sequence (P22303 32-614): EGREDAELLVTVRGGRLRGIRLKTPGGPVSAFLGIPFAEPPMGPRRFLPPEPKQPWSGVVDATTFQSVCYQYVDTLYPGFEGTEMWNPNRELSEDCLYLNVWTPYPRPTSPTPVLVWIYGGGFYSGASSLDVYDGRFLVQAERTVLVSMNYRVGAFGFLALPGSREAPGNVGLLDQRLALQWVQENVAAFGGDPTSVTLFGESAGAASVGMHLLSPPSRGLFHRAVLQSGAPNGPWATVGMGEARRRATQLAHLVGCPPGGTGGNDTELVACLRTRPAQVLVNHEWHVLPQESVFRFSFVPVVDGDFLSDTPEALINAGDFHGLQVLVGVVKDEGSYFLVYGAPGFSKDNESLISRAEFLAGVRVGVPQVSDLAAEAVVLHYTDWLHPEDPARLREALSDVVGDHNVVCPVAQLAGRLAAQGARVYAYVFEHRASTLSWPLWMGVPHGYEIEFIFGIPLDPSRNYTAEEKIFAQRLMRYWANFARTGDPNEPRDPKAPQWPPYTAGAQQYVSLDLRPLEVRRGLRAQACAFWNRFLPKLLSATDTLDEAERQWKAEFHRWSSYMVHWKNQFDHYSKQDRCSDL
T1 sequence (P06276 29-602): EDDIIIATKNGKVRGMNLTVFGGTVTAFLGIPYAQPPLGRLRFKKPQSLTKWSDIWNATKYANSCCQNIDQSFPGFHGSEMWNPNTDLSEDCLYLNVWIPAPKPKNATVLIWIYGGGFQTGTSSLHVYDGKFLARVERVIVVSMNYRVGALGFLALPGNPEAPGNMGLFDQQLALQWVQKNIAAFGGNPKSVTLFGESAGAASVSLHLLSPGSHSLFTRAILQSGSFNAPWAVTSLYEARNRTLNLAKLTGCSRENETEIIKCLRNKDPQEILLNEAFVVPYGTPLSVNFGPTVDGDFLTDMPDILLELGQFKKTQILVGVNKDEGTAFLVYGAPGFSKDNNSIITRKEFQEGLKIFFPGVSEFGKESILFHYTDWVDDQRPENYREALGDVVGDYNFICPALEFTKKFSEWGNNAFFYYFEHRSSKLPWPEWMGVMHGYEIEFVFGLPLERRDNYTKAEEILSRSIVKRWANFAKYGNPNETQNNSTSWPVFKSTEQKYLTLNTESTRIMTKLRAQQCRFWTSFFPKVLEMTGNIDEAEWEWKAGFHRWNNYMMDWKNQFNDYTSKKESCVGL

SMILES: Clc1ccc2c(NCCCCCCNCC34CC5CC(CC(C5)C3)C4)ccnc2c1 [Compound 4]
- FRAP ([1]; 10 µM compound): 1.9 ± 0.5 µM
- FRAP ([1]; 100 µM compound): 58 ± 10 µM
- Ki (purified human BChE; [3]): 0.76 µM
- Ki (purified human BChE; [4]): 0.76 ± 0.06 µM
- IS (recombinant human AChE): 1.1
- Ki (recombinant human AChE; [5]): 0.67 µM
- Ki (recombinant human AChE; [6]): 0.67 ± 0.02 µM
- RM0 [2, 7]: 2.036
- b [2, 7]: 3.254
- RM0 [2, 8]: 0.9103
- b [2, 8]: 1.922
- RM0 [2, 9]: 2.899
- b [2, 9]: 3.742
- RF, Methanol/Water/Hydrochloric acid (conc.), mobile phase I [2]: 0.72
- RF, Dioxane/Water/Hydrochloric acid (conc.), mobile phase II [2]: 0.78
- RF, Methanol/Water/Hydrochloric acid (conc.), mobile phase II [2]: 0.66
- RF, Acetone/Water/Hydrochloric acid (conc.), mobile phase III [2]: 0.6
- RF, Dioxane/Water/Hydrochloric acid (conc.), mobile phase III [2]: 0.73
- RF, Methanol/Water/Hydrochloric acid (conc.), mobile phase III [2]: 0.47
- RF, Dioxane/Water/Hydrochloric acid (conc.), mobile phase IV [2]: 0.72
- RF, Acetone/Water/Hydrochloric acid (conc.), mobile phase IV [2]: 0.55
- RF, Methanol/Water/Hydrochloric acid (conc.), mobile phase IV [2]: 0.49
- RF, Acetone/Water/Hydrochloric acid (conc.), mobile phase IX [2]: 0.11
- RF, Methanol/Water/Hydrochloric acid (conc.), mobile phase IX [2]: 0.06
- RF, Dioxane/Water/Hydrochloric acid (conc.), mobile phase V [2]: 0.52
- RF, Acetone/Water/Hydrochloric acid (conc.), mobile phase V [2]: 0.45
- RF, Methanol/Water/Hydrochloric acid (conc.), mobile phase V [2]: 0.4
- RF, Dioxane/Water/Hydrochloric acid (conc.), mobile phase VI [2]: 0.38
- RF, Acetone/Water/Hydrochloric acid (conc.), mobile phase VI [2]: 0.37
- RF, Methanol/Water/Hydrochloric acid (conc.), mobile phase VI [2]: 0.31
- RF, Acetone/Water/Hydrochloric acid (conc.), mobile phase VII [2]: 0.33
- RF, Methanol/Water/Hydrochloric acid (conc.), mobile phase VII [2]: 0.2
- RF, Acetone/Water/Hydrochloric acid (conc.), mobile phase VIII [2]: 0.26
- RF, Methanol/Water/Hydrochloric acid (conc.), mobile phase VIII [2]: 0.13

SMILES: Clc1ccc2c(NCCCCCCCCNCC34CC5CC(CC(C5)C3)C4)ccnc2c1 [Compound 5]
- FRAP ([1]; 10 µM compound): 9.5 ± 1.9 µM
- FRAP ([1]; 100 µM compound): 82 ± 4 µM
- increase in BChE inhibition vs compounds 3 and 4 (purified human BChE): about 9 times
- more potent BChE inhibitor than galantamine (purified human BChE; comparator ref [63]): 12 times
- Ki (purified human BChE; [3]): 0.0912 µM
- Ki (purified human BChE; [4]): 0.091 ± 0.007 µM
- less potent AChE inhibitor than donepezil and tacrine (recombinant human AChE): 2 to 3 times
- IS (recombinant human AChE): 1.2
- Ki (recombinant human AChE; [5]): 0.0759 µM
- increase in AChE inhibition potency (recombinant human AChE; n-octylene spacer vs unbranched compounds with shorter spacer): about 12 times
- Ki (recombinant human AChE; [6]): 0.075 ± 0.06 µM
- RM0 [2, 7]: 2.706
- b [2, 7]: 4.173
- RM0 [2, 8]: 1.151
- b [2, 8]: 2.214
- RM0 [2, 9]: 3.7376
- b [2, 9]: 4.663
- RF, Methanol/Water/Hydrochloric acid (conc.), mobile phase I [2]: 0.67
- RF, Dioxane/Water/Hydrochloric acid (conc.), mobile phase II [2]: 0.78
- RF, Methanol/Water/Hydrochloric acid (conc.), mobile phase II [2]: 0.62
- RF, Acetone/Water/Hydrochloric acid (conc.), mobile phase III [2]: 0.55
- RF, Dioxane/Water/Hydrochloric acid (conc.), mobile phase III [2]: 0.7
- RF, Methanol/Water/Hydrochloric acid (conc.), mobile phase III [2]: 0.42
- RF, Dioxane/Water/Hydrochloric acid (conc.), mobile phase IV [2]: 0.7
- RF, Acetone/Water/Hydrochloric acid (conc.), mobile phase IV [2]: 0.49
- RF, Methanol/Water/Hydrochloric acid (conc.), mobile phase IV [2]: 0.44
- RF, Acetone/Water/Hydrochloric acid (conc.), mobile phase IX [2]: 0.04
- RF, Methanol/Water/Hydrochloric acid (conc.), mobile phase IX [2]: 0.02
- RF, Dioxane/Water/Hydrochloric acid (conc.), mobile phase V [2]: 0.47
- RF, Acetone/Water/Hydrochloric acid (conc.), mobile phase V [2]: 0.39
- RF, Methanol/Water/Hydrochloric acid (conc.), mobile phase V [2]: 0.34
- RF, Dioxane/Water/Hydrochloric acid (conc.), mobile phase VI [2]: 0.31
- RF, Acetone/Water/Hydrochloric acid (conc.), mobile phase VI [2]: 0.32
- RF, Methanol/Water/Hydrochloric acid (conc.), mobile phase VI [2]: 0.23
- RF, Acetone/Water/Hydrochloric acid (conc.), mobile phase VII [2]: 0.28
- RF, Methanol/Water/Hydrochloric acid (conc.), mobile phase VII [2]: 0.11
- RF, Acetone/Water/Hydrochloric acid (conc.), mobile phase VIII [2]: 0.19
- RF, Methanol/Water/Hydrochloric acid (conc.), mobile phase VIII [2]: 0.07
